# Patent US11939588B2, “Elevated resistance to insects and plant pathogens without compromising seed production” (Board of Trustees of Michigan State University, priority 2019, dated 2024)
# Key:
# Assay type in all cases: in vivo, Arabidopsis thaliana
# [1] = test system: WT, cdk8-1, jazD and jazD cdk8-1 seedlings; experiment: Root length on medium with 5-methyl-tryptophan; settings: 0 or 15 μM 5-MT, 10-day-old, partially dependent on CDK8
# Excerpt: FIG. 13A is a schematic of tryptophan biosynthesis from chorismate. Tryptophan feedback inhibits the activity of anthranilate synthase (AS). Although 5-methyl-tryptophan (5-MT) inhibits anthranilate synthase activity, it cannot be used for the production of proteins. The abbreviations used in FIG. 13A are: TRP, anthranilate phosphoribosyltransferase: PAI, phosphoribosylanthranilate isomerase; IGPS, indole-3-glycerol-phosphate synthase; TSA, tryptophan synthase alpha subunit: TSB, tryptophan synthase beta subunit. FIG. 13B graphically illustrates root length of WT, cdk8-1, jazD, and jazD cdk8-1 10-day-old seedlings grown on medium supplemented with 0 or 15 μM of 5-methyl-tryptophan (5-MT). Data shown are the mean±SD of at least 24 seedlings per genotype at each 5-MT concentration. Letters denote significant differences according to Tukey's HSD test (P<0.05).
# FIG. 13B graphically illustrates root length of WT, cdk8-1, jazD, and jazD cdk8-1 10-day-old seedlings grown on medium supplemented with 0 or 15 μM of 5-methyl-tryptophan (5-MT). The data shown in FIG. 13B are the mean±SD of at least 24 seedlings per genotype at each 5-MT concentration, while the letters denote significant differences according to Tukey's HSD test (P<0.05).
# [2] = test system: WT, jazQ and jazD seedlings; experiment: Apical hook formation in ethylene-elicited (ACC-treated) seedlings; settings: jazD and jazQ seedlings compared with WT
# Excerpt: FIGS. 3A-3F illustrates that jazD plants are highly resistant to insect herbivores and necrotrophic pathogens. […] Data shown are the mean±SD of at least 30 larvae per genotype. Capital letters denote significant differences according to Tukey's HSD test (P<0.05). FIG. 3C is a heat map displaying the expression level of various jasmonate/ethylene-responsive genes in leaves of jazQ and jazD normalized to wild type. ACT, agmatine coumaroyl transferase (accession no. At5g61160). […] FIG. 3E graphically illustrates disease lesion size on leaves of the indicated genotypes following 5 days of treatment with B. cinerea spores for the indicated plant lines. […] Capital letters denote significant differences (Tukey's HSD test, P<0.05). FIG. 3F graphically illustrates apical hook angles of seedlings grown in the presence of various concentrations of the ethylene precursor 1-aminocyclopropane-1-carboxylic acid (ACC). Data shown are the mean±SD of at least 21 seedlings per genotype. […]
# In agreement with the RNA-seq data, jazQ plants were slightly more susceptible than wild type to the necrotrophic pathogen Botrytis cinerea, whereas jazD leaves were more resistant to the spread of disease lesions (FIG. […]). To determine whether jazQ and jazD differentially affect other ethylene responses, the inventors assessed apical hook formation in ethylene-elicited seedlings.
# [3] = test system: wild type Col-0 (WT), jazQ, jazD and jazU seedlings; experiment: Root elongation assay with MeJA
# Description: Seeds were surface sterilized with 50% (v/v) bleach for three min, washed 10 times with sterile water and stratified in dark at 4° C. for two days. Seedlings were grown on 0.7% (w/v) agar media containing half-strength Linsmaier and Skoog (LS; Caisson Labs) salts supplemented with 0.8% (w/v) sucrose and the indicated concentration of MeJA (Sigma-Aldrich). Each square Petri plate (Fisher; 100×100×15 mm) contained five seedlings per genotype. Plates were incubated vertically in a growth chamber maintained at 21° C. for eight days under 16-hour-light (80 μE m^−2s^−1)/8-hour-dark conditions. The length of primary roots was measured using ImageJ software (see website at imagej.nih.gov/ij/).
# [4] = test system: leaves of wild type, jazQ and jazD plants; experiment: Coronatine treatment of intact leaves; settings: 50 μM coronatine
# Description: The eighth true leaf of 40-day-old plants grown under 12-hour-light/12-hour-dark conditions were spotted with 5 μL of sterile water (mock) or a solution containing 50 μM coronatine (Sigma-Aldrich, C8115) prepared in sterile water. Photographs were taken two and four days after treatment.
# [5] = test system: WT, jazQ and jazD seedlings; experiment: Sucrose rescue assay (leaf biomass and root growth)
# Description: The effect of exogenous sucrose on leaf biomass and root growth was determined by growing seedlings on square Petri plates (Greiner Bio-One; 120×120×17 mm). In order to control for variation in seed quality, seeds were sieved after drying with desiccant for two weeks (see above). After sterilization and washing, seeds were sown without stratification on 0.7% (w/v) agar media containing half-strength LS salts supplemented with sucrose or sorbitol. Each plate contained ten (for biomass) or five (for root growth) seeds of Col-0 and mutant lines. Plates were placed in the dark at 4° C. for four days and then incubated horizontally (for leaf biomass) or vertically (for root growth) in growth chambers maintained at 21° C. under 16 h at a light intensity of 80 μE m^−2 s^−1 and 8-hour dark. ImageJ was used to measure root length after 11 days. Plant biomass and projected leaf area were measured after 16 days.
compound,measurement,setting,value
"Cc1ccc2[nH]cc(C[C@H](N)C(=O)O)c2c1 [5-MT, 5-methyl-tryptophan]",resistance to 5-MT (root length),[1],increased resistance
"NC1(C(=O)O)CC1 [ACC, 1-aminocyclopropane-1-carboxylic acid]",stimulation of hook curvature in response to ACC,[2],reduced in jazD but not jazQ seedlings
"CC/C=C\CC1C(=O)CCC1CC(=O)OC (stereo not shown) [MeJA, methyljasmonate]",sensitivity of jaz decuple mutant (jazD) to jasmonate,"[3]; jazD seedlings, 0, 5 or 25 μM MeJA, 8-day-old",highly sensitive
same,growth of roots in the presence of MeJA,"[3]; jazD seedlings, 5 μM MeJA",effectively arrested
same,root length in the presence of MeJA,"[3]; jazU seedlings versus jazD, very low concentrations (e.g., 1 μM) of MeJA",even shorter than jazD
CC[C@H]1C=C(C(=O)N[C@@]2(C(=O)O)C[C@@H]2CC)[C@H]2CCC(=O)[C@H]2C1 [coronatine],sensitivity of jazD leaves to coronatine,"[4]; jazD leaves, 2 or 4 days",hypersensitive
same,leaf response after COR application,"[4]; jazD leaves, 4 days after treatment",near complete loss of chlorophyll and spreading of necrosis-like symptoms throughout the leaf
same,leaf response at the site of COR application,"[4]; jazD leaves, within 2 days of treatment",visible chlorosis
same,chlorosis after COR application,"[4]; wild type and jazQ leaves, within 4 days",no apparent signs of chlorosis
same,leaf response at the site of COR application,"[4]; wild type and jazQ leaves, within 4 days of treatment",visible accumulation of anthocyanin pigments
OC[C@H]1O[C@@](CO)(O[C@H]2O[C@H](CO)[C@@H](O)[C@H](O)[C@H]2O)[C@@H](O)[C@@H]1O [sucrose],effect of exogenous sucrose on biomass,"[5]; all genotypes tested (WT, jazQ, jazD), 16-day-old seedlings on agar medium",promotes increased biomass
same,effect of exogenous sucrose on root growth,"[5]; jazD in comparison with wild type and jazQ, 11-day-old seedlings, 23 mM sucrose",enhanced the root growth of jazD
same,stimulatory effect of sucrose on growth of shoots,[5]; jazD shoots compared with wild type and jazQ,statistically greater than that of wild type and jazQ
